Entries after “also recorded” stand apart in the source; their conditions may differ.
Key:
[1] = type: in vivo, human
Method: More recently, dexmecamylamine was evaluated as adjunctive therapy in the treatment of major depressive disorder (MDD) in a large international Phase 3 depression program. […] More than 2400 subjects have received dexmecamylamine in double-blind or open-label studies.
No safety studies using dexmecamylamine have been performed in OAB. Phase 2 and Phase 3 clinical studies using dexmecamylamine in Major Depressive Disorder (MDD) have been conducted and completed. […] Briefly, in the fixed dose Phase 3 studies in MDD, at doses of 2 mg BID (the maximum doses to be studied in the OAB study), the most frequent treatment emergent adverse events that were reported more than 2% more commonly in the dexmecamylamine group compared to placebo group were: constipation (15.2% dexmecamylamine vs. 3.8% placebo); and dry mouth (7.0% dexmecamylamine vs. 1.3% placebo).

[2] = target: NMDA receptor NR1a-NR2B (Homo sapiens, UniProt Q05586+Q13224); assay: Glutamate-evoked currents at NR1a-NR2B receptors in Xenopus oocytes (two electrode voltage-clamp); type: cell-based
NMDA receptor NR1a-NR2B, sequence (Q13224 27-1484, other chains not shown): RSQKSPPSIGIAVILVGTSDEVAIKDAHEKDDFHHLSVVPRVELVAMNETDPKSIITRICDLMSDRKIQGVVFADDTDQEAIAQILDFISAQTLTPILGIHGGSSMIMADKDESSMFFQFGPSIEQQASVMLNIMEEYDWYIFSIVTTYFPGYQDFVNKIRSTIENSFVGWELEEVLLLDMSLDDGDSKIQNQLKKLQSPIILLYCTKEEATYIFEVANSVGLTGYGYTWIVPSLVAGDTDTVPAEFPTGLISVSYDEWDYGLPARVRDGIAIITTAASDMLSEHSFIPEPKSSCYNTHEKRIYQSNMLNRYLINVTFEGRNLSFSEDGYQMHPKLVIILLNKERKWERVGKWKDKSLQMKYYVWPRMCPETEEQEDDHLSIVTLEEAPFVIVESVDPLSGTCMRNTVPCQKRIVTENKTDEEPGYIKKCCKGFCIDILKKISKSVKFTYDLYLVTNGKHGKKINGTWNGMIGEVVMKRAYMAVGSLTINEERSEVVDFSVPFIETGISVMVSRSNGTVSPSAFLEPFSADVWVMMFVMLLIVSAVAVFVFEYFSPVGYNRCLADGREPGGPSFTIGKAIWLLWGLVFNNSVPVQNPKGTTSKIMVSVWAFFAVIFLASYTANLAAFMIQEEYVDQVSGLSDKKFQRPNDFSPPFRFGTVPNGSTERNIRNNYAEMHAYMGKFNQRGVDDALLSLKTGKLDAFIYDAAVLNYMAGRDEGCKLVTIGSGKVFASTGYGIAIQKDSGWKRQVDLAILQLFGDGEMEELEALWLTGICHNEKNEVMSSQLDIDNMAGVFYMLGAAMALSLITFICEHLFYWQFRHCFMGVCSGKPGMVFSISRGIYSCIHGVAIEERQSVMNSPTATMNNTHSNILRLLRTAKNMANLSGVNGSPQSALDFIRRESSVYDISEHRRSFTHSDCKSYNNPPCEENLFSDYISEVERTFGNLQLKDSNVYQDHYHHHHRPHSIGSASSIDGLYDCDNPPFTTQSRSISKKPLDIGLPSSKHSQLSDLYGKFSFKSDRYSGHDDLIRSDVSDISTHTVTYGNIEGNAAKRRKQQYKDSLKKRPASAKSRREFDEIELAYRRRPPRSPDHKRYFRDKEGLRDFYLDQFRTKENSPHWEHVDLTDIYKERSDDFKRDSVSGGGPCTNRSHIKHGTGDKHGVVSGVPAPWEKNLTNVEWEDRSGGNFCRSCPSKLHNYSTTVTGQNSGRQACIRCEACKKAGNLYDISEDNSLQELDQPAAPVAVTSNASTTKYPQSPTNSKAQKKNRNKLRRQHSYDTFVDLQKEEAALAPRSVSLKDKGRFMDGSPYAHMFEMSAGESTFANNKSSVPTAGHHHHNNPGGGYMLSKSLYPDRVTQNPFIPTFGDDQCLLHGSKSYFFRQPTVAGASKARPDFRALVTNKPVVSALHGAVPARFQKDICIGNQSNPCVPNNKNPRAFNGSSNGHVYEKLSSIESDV
Method: (§1) All experiments were carried out at receptors expressed in Xenopus oocytes using the method of cDNA expression. Currents evoked by glutamate were recorded using the standard two electrode voltage-clamp configuration (TVEC). Xenopus oocytes were prepared and injected using standard procedures.
Briefly, ovaries are harvested from Xenopus Laevis females that have been deeply anesthetized and pithed following the animal rights rule from the Geneva canton. […] Data were filtered at 10 Hz, captured at 100 Hz and analyzed using HiQ proprietary data acquisition and analysis software running under Matlab (Mathworks Inc.).
Oocytes expressing the NR1a-NR2A or NR1a-NR2B receptors were challenged at periodic intervals with a glutamate test pulse. Test drug was then applied during a sustained period and its effects monitored by measuring the amplitude and time course of the glutamate evoked currents. […]
To further evaluate effects of TC-5214, experiments using sustained exposure to this compound followed by a recovery period were carried out at NR1a-NR2A and NR1a-NR2B receptors. Measurements were made with (nM) 0, 3, 10, 30, 100, 300, TC-5214 and recovery monitored during 10 minutes. […] Effects were measured in at least three cells. […]

[3] = Urinary excretion and bladder/urine concentration after oral dosing, clinical program for depression; type: in vivo, human; conditions: for excretion unchanged in the urine: human, in vivo
Method: One aspect of the present invention is the use of dexmecamylamine as an oral agent for intravesical drug delivery. Oral doses (up to 4 mg BID) of dexmecamylamine evaluated during clinical studies for depression produced concentrations in the bladder in excess of 10 μM. […] Nicotinic receptors, including α3, α7, and β4, are expressed in the bladder urothelium itself. Agents that block nicotinic receptors in the bladder, such as hexamethonium, decrease bladder contractions and may block sensation of urgency. Inhibition of the α3 receptor diminishes bladder contraction frequency and afferent signaling to the brain (via P2X), thereby blocking or reducing the sensation of urgency. […] (Xu et al., Megacystis, mydriasis, and ion channel defect in mice lacking the α3 neuronal nicotinic acetylcholine receptor, Proc. Natl. Acad. Sci., Vol. 96, pp. 5746-5751, May 1999.)
During the dexmecamylamine clinical program for depression, including the initial phase 1 study (conducted by Targacept), ≧90% of orally administered dexmecamylamine was excreted unchanged in the […].

[4] = target: NMDA receptor NR1a-NR2A (Homo sapiens, UniProt Q05586+Q12879); assay: Glutamate-evoked currents at NR1a-NR2A receptors in Xenopus oocytes (two electrode voltage-clamp); type: cell-based
NMDA receptor NR1a-NR2A, sequence (Q12879 23-1464, other chains not shown): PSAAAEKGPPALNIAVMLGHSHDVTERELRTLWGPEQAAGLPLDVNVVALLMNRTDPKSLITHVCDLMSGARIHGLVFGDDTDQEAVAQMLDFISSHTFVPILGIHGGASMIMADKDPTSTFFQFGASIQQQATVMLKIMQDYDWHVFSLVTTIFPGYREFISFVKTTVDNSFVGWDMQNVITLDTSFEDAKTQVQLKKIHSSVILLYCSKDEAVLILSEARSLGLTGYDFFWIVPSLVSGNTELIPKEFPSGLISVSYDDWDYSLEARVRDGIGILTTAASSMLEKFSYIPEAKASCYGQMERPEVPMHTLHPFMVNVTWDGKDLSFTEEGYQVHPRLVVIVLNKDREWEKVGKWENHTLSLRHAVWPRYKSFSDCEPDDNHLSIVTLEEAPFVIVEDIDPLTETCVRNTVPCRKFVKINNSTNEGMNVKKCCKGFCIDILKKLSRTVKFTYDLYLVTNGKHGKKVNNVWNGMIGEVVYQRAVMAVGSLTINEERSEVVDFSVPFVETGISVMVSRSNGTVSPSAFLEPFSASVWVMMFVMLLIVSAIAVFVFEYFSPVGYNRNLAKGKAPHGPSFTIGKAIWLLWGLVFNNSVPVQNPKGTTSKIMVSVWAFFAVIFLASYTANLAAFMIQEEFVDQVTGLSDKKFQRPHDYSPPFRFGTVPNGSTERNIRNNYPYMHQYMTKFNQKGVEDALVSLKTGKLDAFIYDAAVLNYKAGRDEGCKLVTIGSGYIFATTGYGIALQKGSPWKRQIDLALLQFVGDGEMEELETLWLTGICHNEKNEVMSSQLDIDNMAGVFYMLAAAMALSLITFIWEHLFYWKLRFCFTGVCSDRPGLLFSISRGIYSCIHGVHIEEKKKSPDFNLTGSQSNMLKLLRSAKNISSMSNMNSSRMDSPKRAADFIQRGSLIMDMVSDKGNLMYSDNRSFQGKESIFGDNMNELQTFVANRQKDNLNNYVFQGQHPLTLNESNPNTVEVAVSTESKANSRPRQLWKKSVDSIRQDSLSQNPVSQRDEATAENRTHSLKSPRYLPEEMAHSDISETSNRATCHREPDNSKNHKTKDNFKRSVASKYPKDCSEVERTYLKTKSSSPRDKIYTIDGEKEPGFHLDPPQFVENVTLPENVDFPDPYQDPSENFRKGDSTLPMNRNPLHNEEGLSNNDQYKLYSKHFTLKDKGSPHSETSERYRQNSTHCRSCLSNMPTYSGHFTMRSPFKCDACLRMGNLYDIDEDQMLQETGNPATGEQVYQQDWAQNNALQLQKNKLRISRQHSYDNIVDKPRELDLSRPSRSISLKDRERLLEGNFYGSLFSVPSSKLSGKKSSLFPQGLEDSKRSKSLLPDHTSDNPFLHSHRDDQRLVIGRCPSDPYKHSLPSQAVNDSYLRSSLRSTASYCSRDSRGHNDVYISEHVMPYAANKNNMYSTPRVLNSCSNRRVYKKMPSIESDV
Method: as §1
Briefly, ovaries are harvested from Xenopus Laevis females that have been deeply anesthetized and pithed following the animal rights rule from the Geneva canton. A small piece of ovary is isolated for immediate preparation while the remaining part is placed at 4° C. in a sterile Barth solution containing in mM NaCl 88, KCl 1, NaHCO3 2.4, HEPES 10, MgSO4.7H2O 0.82, Ca(NO3)2.4H2O 0.33, CaCl2.6H2O 0.41, at pH 7.4, and supplemented with 20 μg/ml of kanamycine, 100 unit/ml penicillin and 100 μg/ml streptomycin. On the second day following dissociation, oocytes are injected with 2 ng of cDNA per oocyte containing the NR1a-NR2A or NR1a-NR2B using an automated injector (Hogg et al., J. Neurosci. Methods, 2008). […] Cells were held at −80 mV. Data were filtered at 10 Hz, captured at 100 Hz and analyzed using HiQ proprietary data acquisition and analysis software running under Matlab (Mathworks Inc.).
Oocytes expressing the NR1a-NR2A or NR1a-NR2B receptors were challenged at periodic intervals with a glutamate test pulse. Test drug was then applied during a sustained period and its effects monitored by measuring the amplitude and time course of the glutamate evoked currents.
Experiments were carried out with the NR1a-NR2A and NR1a-NR2B at least in triplicate. Positive reference compounds (ketamine and MK-801) were tested using the same protocol.
To further evaluate effects of TC-5214, experiments using sustained exposure to this compound followed by a recovery period were carried out at NR1a-NR2A and NR1a-NR2B receptors. Measurements were made with (nM) 0, 3, 10, 30, 100, 300, TC-5214 and recovery monitored during 10 minutes. In addition, the same experimental protocol will be used with cells in control conditions to assess the stability of the measurements. Effects were measured in at least three cells.
A use-dependent protocol was used to identify non-competitive inhibition of the receptors. Cells expressing the NMDA receptors were tested for their sensitivity to TC-5214 at 30 nM, using the same protocol as described above. Cells from the same batch were tested in parallel using the same incubation time with an identical concentration of TC-5214 (30 nM) but in absence of pulses during the incubation time with the compound. Two glutamate pulses were applied at the end of the incubation time, and recovery monitored as for the control conditions.

[5] = system: bladder function in conscious Sprague Dawley rats; assay: Oral administration (gavage) in awake, conscious rats, cystometry; conditions: 1 mg/kg oral gavage; for bladder contraction amplitude: compared to baseline/control; for change in spontaneous activity (SA), a surrogate for urge: compared to control; for change in bladder capacity / change in micturition interval / ICI / change in micturition volume: relative to baseline/control
Method: A further study was conducted to evaluate the effects of TC-5214 on bladder function in awake, conscious Sprague Dawley rats.
Nine female Sprague Dawley rats received intravesical saline at a rate of 10 mL/hr. Following a 60-minute baseline evaluation, rats were administered dexmecamylamine at a dose of 1 mg/kg by oral gavage, a dose previously determined to be the “No Effect Dose” in safety pharmacology studies. Two hours following the oral administration of dexmecamylamine, cystometric parameters were collected over a period of one hour.

[6] = target: α4β2 (Homo sapiens, UniProt P17787+P43681); conditions: 1 μM; cited from earlier work
α4β2, sequence (P43681 29-627 limits assumed): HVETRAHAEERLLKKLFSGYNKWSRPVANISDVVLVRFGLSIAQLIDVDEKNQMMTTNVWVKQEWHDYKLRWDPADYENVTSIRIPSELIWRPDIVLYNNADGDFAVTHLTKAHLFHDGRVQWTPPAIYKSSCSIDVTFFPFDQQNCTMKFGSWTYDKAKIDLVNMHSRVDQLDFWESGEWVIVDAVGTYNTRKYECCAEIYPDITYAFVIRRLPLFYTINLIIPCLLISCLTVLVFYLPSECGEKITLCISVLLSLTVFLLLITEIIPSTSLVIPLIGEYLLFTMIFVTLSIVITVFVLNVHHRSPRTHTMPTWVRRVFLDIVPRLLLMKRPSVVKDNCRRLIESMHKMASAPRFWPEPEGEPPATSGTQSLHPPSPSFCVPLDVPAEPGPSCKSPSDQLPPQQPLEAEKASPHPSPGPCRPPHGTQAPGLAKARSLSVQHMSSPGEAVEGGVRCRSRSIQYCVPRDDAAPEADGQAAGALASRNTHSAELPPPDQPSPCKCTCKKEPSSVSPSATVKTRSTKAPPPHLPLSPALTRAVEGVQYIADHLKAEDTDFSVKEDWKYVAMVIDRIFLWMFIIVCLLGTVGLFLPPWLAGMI
α4β2, sequence (P17787 26-502): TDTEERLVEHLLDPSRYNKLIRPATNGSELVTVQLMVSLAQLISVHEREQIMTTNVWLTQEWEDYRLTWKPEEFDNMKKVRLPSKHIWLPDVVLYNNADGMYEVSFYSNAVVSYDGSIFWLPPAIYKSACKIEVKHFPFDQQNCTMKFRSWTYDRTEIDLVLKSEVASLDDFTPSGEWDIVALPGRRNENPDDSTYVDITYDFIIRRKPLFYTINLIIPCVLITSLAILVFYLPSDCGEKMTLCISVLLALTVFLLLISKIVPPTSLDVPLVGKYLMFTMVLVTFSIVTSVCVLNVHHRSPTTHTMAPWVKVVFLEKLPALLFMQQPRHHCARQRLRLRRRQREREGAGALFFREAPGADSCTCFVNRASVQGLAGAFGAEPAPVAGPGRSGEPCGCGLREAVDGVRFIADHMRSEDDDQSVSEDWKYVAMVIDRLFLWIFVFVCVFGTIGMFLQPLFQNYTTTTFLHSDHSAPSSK

[7] = 3, 10, 30, 100, 300 nM, Glutamate 10 μM-Glycine 1 μM

CNC1(C)[C@H]2CCC(C2)C1(C)C (stereo partly drawn) [TC-5214, (S)—N,2,3,3-tetramethylnorbornan-2-amine]
efficacy in the treatment of depression ([1]; adjunctive therapy, Phase 3 program): failed to demonstrate efficacy
vital signs, blood or urine laboratory measurements, ECG conduction intervals, suicidality ([1]; human, in vivo): no noteworthy differences
extent of inhibition over concentration range (FIG. 22) [2, 7]: partial inhibition
concentration at which it potently inhibits ([2]; FIG. 23 legend): 10 to 30 nM
expected mean concentrations (urine) in humans ([3]; 0.5 mg BID dosing): approximately 3 μM
mean urine concentrations ([3]; 1 mg BID): approximately 6 μM
excretion unchanged in the urine [3]: eliminated unchanged in the urine
excretion unchanged in the urine ([3]; listed as dexmecamylamine): excreted almost entirely unchanged in the urine
concentrations in the bladder ([3]; oral doses up to 4 mg BID): > 10 µM
orally administered dose excreted unchanged in the bladder ([3]; oral, clinical program for depression incl. initial phase 1 study): ≥ 90%
extent of inhibition over concentration range (FIG. 22) [4, 7]: complete inhibition
concentration at which it potently inhibits ([4]; FIG. 23 legend): 10 to 30 nM
recovery following wash-out ([4]; after sustained exposure): clear evidence for recovery
bladder contraction amplitude [5]: placebo-like
bladder contraction amplitude ([5]; listed as dexmecamylamine): without producing detrimental changes; also recorded: insignificant effect
change in spontaneous activity (SA), a surrogate for urge [5]: statistically significant differential
change in spontaneous activity (SA), a surrogate for urge ([5]; listed as dexmecamylamine): significant decrease
bladder compliance ([5]; relative to baseline): without producing detrimental changes
micturition pressure ([5]; relative to baseline): without producing detrimental changes
change in bladder capacity [5]: statistically significant increase
change in micturition interval / ICI [5]: statistically significant increase
change in micturition volume [5]: statistically significant increase
change in bladder capacity ([5]; listed as dexmecamylamine): statistically significant (Student paired-t test) increases
change in micturition interval / ICI ([5]; listed as dexmecamylamine): statistically significant (Student paired-t test) increases
change in micturition volume ([5]; listed as dexmecamylamine): statistically significant (Student paired-t test) increases
micturition interval ([5]; Last 1H (from 2 h after dosing), baseline First 1H 6.44 ± 1.24, FIG. 25 gives minutes): 9.44 ± 1.87
RV (Bcap-MV) ([5]; Last 1H, baseline First 1H 0.06 ± 0.02): 0.09 ± 0.04
B compliance ([5]; Last 1H, baseline First 1H 0.11 ± 0.03): 0.13 ± 0.03
Bcap ([5]; Last 1H, baseline First 1H 1.04 ± 0.24): 1.58 ± 0.31
SA (IMP-BP) ([5]; Last 1H, baseline First 1H 6.55 ± 2.01): 6.99 ± 2.57
BP (baseline) ([5]; Last 1H, baseline First 1H 10.39 ± 1.96): 8.60 ± 1.10
IMP ([5]; Last 1H, baseline First 1H 16.94 ± 3.94): 15.6 ± 2.91
TP ([5]; Last 1H, baseline First 1H 23.27 ± 3.82): 23.3 ± 2.0
modulation of α4β2 function [6]: positive modulation
